Reference: article PMC3830801, “Synthesis and Biological Evaluation of 2-Hydroxy-3-[(2-aryloxyethyl)amino]propyl 4-[(Alkoxycarbonyl)amino]benzoates” (The Scientific World Journal, 2013)

Columns and labels:
[1] = Lipophilicity determination by HPLC (capacity factor k / log k); type: physicochemical; settings: RP-HPLC, C18, MeOH 55%/H2O 45%
Text: A Waters Alliance 2695 XE HPLC separation module and a Waters Photodiode Array Detector 2996 (Waters Corp., Milford, MA, USA) were used. A Symmetry C18 5 μm, 4.6 × 250 mm, part number WAT054275 (Waters Corp., Milford, MA, USA) chromatographic column was used. The HPLC separation process was monitored by Empower 2 Chromatography Data Software, Waters 2009 (Waters Corp., Milford, MA, USA). A mixture of MeOH p.a. (55%) and H2O-HPLC–Milli-Q Grade (45%) was used as a mobile phase. The total flow of the column was 1.0 mL/min, injection volume 30 μL, column temperature 45°C, and sample temperature 10°C. The detection wavelength of 210 nm was chosen. The KI methanolic solution was used for the dead time (t D) determination. Retention times (t R) were measured in minutes. The capacity factors k were calculated using the Empower 2 Chromatography Data Software according to formula k = (t R − t D)/t D, where t R is the retention time of the solute, whereas t D denotes the dead time obtained using an unretained analyte. logk, calculated from the capacity factor k, is used as the lipophilicity index converted to logP scale.

[2] = pKa determination by RP-HPLC; type: physicochemical; settings: from retention factor vs pH of mobile phase, recalculated for water medium
[3] = test system: Mycobacterium avium subsp. paratuberculosis CIT03; test: In vitro antimycobacterial evaluation (alamarBlue, MIC); type: cell-based; settings: for MIC: Mycobacterium avium, 264 h, MIC/IC90, 11 days incubation, 37°C
Experimental: (§1) Clinical isolates of Mycobacterium avium subsp. paratuberculosis CIT03 and M. intracellulare were grown in Middlebrook broth (MB), supplemented with oleic-albumin-dextrose-catalase supplement (OADC, Becton Dickinson, UK) and mycobactin J (2 μg/mL). Identification of these isolates was performed using biochemical and molecular protocols. At log phase growth, the culture (10 mL) was centrifuged at 15,000 rpm/20 min using a bench top centrifuge (Model CR 4–12, Jouan Inc., UK). Following the removal of the supernatant, the pellet was washed in fresh Middlebrook 7H9GC broth and resuspended in fresh supplemented MB (10 mL). The turbidity was adjusted to match McFarland standard no. 1 (3 × 10^8 cfu) with MB broth. A further 1 : 20 dilution of the culture was then performed in MB broth. The antimicrobial susceptibility of all four mycobacterial species was investigated in a 96-well plate format. In these experiments, sterile deionised water (300 μL) was added to all outer-perimeter wells of the plates to minimize evaporation of the medium in the test wells during incubation. Each evaluated compound (100 μL) was incubated with each of the mycobacterial species (100 μL). Dilutions of each compound were prepared in duplicate. For all synthesized compounds, final concentrations ranged from 1,000 μg/mL to 8 μg/mL. All compounds were prepared in DMSO, and subsequent dilutions were made in supplemented MB. The plates were sealed with parafilm and incubated at 37°C, for 7 days in the case of M. intracellulare and 11 days in the case of M. avium paratuberculosis. Following incubation, a 10% addition of alamarBlue (AbD Serotec) was mixed with each well, and readings at 570 nm and 600 nm were taken, initially for background subtraction and subsequently after 24 h reincubation. […] For noninterfering compounds, a blue colour in the well was interpreted as an absence of growth, and a pink colour was scored as growth. The MIC was initially defined as the lowest concentration which prevented a visual colour change from blue to pink. […] The MIC/IC90 value is routinely and widely used in bacterial assays and is a standard detection limit according to the Clinical and Laboratory Standards Institute (CLSI, http://www.clsi.org/).

[4] = test system: Mycobacterium intracellulare; test: as above; type: cell-based; settings: for MIC: Mycobacterium intracellulare, 168 h, MIC/IC90, 7 days incubation, 37°C
Experimental: as §1

spinach chloroplasts = test: Photosynthetic electron transport (PET) in spinach chloroplasts (DCPIP photoreduction); type: biochemical, Spinacia oleracea L.; settings: DMSO 8% v/v
Experimental: Chloroplasts were prepared from spinach (Spinacia oleracea L.) according to Masarovičová and Král'ová [38]. The inhibition of photosynthetic electron transport (PET) in spinach chloroplasts was determined spectrophotometrically (Genesys 6, Thermo Scientific, USA), using an artificial electron acceptor 2,6-dichlorophenol-indophenol (DCIPP) according to Král'ová et al., and the rate of photosynthetic electron transport was monitored as a photoreduction of DCPIP. The measurements were carried out in phosphate buffer (0.02 mol/L, pH 7.2) containing sucrose (0.4 mol/L), MgCl2 (0.005 mol/L), and NaCl (0.015 mol/L). The chlorophyll content was 30 mg/L in these experiments, and the samples were irradiated (~100 W/m^2 with 10 cm distance) with a halogen lamp (250 W) using a 4 cm water filter to prevent warming of the samples (suspension temperature 22°C). The studied compounds were dissolved in DMSO due to their limited water solubility, and the concentration of DMSO was constant (8% (v/v)) in control as well as in amphiphile-treated samples.

SMILES | Log k [1] | pKa [2] | MIC [3] | MIC [4] | effect on the rate of PET (in words) (spinach chloroplasts) | antimycobacterial activity against M. avium subsp. paratuberculosis (in words) [3] | antimycobacterial activity against M. intracellulare (in words) [4]
CCCOC(=O)Nc1ccc(C(=O)OCC(O)CNCCOc2ccccc2F)cc1.Cl (stereo not shown) [Compound 22c, 3-[2-(2-Fluorophenoxy)ethylamino]-2-hydroxypropyl 4-(Propoxycarbonylamino)benzoate Hydrochloride] | 0.4206 | 7.97 | 265 µM | 265 µM |  |  | 
CCCOC(=O)Nc1ccc(C(=O)OCC(O)CNCCOc2ccc(OC)cc2)cc1.Cl (stereo not shown) [Compound 20c, 2-Hydroxy-3-[2-(4-methoxyphenoxy)ethylamino]-propyl 4-(Propoxycarbonylamino)benzoate Hydrochloride] | 0.4108 | 7.99 | 259 µM | 259 µM | relatively strong PET stimulation |  | 
COC(=O)Nc1ccc(C(=O)OCC(O)CNCCOc2ccccc2F)cc1.Cl (stereo not shown) [Compound 22a, 3-[2-(2-Fluorophenoxy)ethylamino]-2-hydroxypropyl 4-(Methoxycarbonylamino)benzoate Hydrochloride] | 0.3904 | 7.98 | 564 µM | 564 µM |  |  | 
CCOC(=O)Nc1ccc(C(=O)OCC(O)CNCCOc2ccccc2OC)cc1.Cl (stereo not shown) [Compound 19b, 2-Hydroxy-3-[2-(2-methoxyphenoxy)ethylamino]-propyl 4-(Ethoxycarbonylamino)benzoate Hydrochloride] | 0.3976 | 8.9 | 128 µM | 533 µM |  |  | 
CO[C@H]1/C=C/O[C@@]2(C)Oc3c(C)c(O)c4c(O)c(c(/C=N/N5CCN(C)CC5)c(O)c4c3C2=O)NC(=O)/C(C)=C\C=C\[C@H](C)[C@H](O)[C@@H](C)[C@@H](O)[C@@H](C)[C@H](OC(C)=O)[C@@H]1C [RIF, rifampicin, reference compound] |  |  | > 109 µM |  |  |  | 
NNC(=O)c1ccncc1 [INH, isoniazid, reference compound] |  |  | > 1820 µM | > 729 µM |  | inactive | inactive
CCOC(=O)Nc1ccc(C(=O)OCC(O)CNCCOc2ccccc2F)cc1.Cl (stereo not shown) [Compound 22b, 3-[2-(2-Fluorophenoxy)ethylamino]-2-hydroxypropyl 4-(Ethoxycarbonylamino)benzoate Hydrochloride] | 0.4011 | 7.99 | 547 µM | 547 µM |  |  | 
COC(=O)Nc1ccc(C(=O)OCC(O)CNCCOc2c(OC)cccc2OC)cc1.Cl (stereo not shown) [Compound 21a, 2-Hydroxy-3-[2-(2,6-dimethoxyphenoxy)ethylamino]-propyl 4-(Methoxycarbonylamino)benzoate Hydrochloride] | 0.3865 | 9.14 | 516 µM | 516 µM |  |  | 
CCOC(=O)Nc1ccc(C(=O)OCC(O)CNCCOc2ccc(F)cc2)cc1.Cl (stereo not shown) [Compound 23b, 3-[2-(4-Fluorophenoxy)ethylamino]-2-hydroxypropyl 4-(Ethoxycarbonylamino)benzoate Hydrochloride] | 0.4032 | 8.09 | 547 µM | 547 µM |  |  | 
COC(=O)Nc1ccc(C(=O)OCC(O)CNCCOc2ccc(F)cc2)cc1.Cl (stereo not shown) [Compound 23a, 3-[2-(4-Fluorophenoxy)ethylamino]-2-hydroxypropyl 4-(Methoxycarbonylamino)benzoate Hydrochloride] | 0.3915 | 8.04 | 564 µM | 564 µM |  |  | 
CCCCOC(=O)Nc1ccc(C(=O)OCC(O)CNCCOc2ccc(OC)cc2)cc1.Cl (stereo not shown) [Compound 20d, 2-Hydroxy-3-[2-(4-methoxyphenoxy)ethylamino]-propyl 4-(Butoxycarbonylamino)benzoate Hydrochloride] | 0.4241 | 8.18 | 62 µM | 121 µM | significantly stimulated the rate of PET |  | 
CCCOC(=O)Nc1ccc(C(=O)OCC(O)CNCCOc2c(OC)cccc2OC)cc1.Cl (stereo not shown) [Compound 21c, 2-Hydroxy-3-[2-(2,6-dimethoxyphenoxy)ethylamino]-propyl 4-(Propoxycarbonylamino)benzoate Hydrochloride] | 0.4052 | 8.9 | 117 µM | 487 µM |  |  | 
CCOC(=O)Nc1ccc(C(=O)OCC(O)CNCCOc2c(OC)cccc2OC)cc1.Cl (stereo not shown) [Compound 21b, 2-Hydroxy-3-[2-(2,6-dimethoxyphenoxy)ethylamino]-propyl 4-(Ethoxycarbonylamino)benzoate Hydrochloride] | 0.3956 | 8.88 | 501 µM | 501 µM |  |  | 
CCCCOC(=O)Nc1ccc(C(=O)OCC(O)CNCCOc2ccccc2F)cc1.Cl (stereo not shown) [Compound 22d, 3-[2-(2-Fluorophenoxy)ethylamino]-2-hydroxypropyl 4-(Butoxycarbonylamino)benzoate Hydrochloride] | 0.4341 | 7.96 | 124 µM | 124 µM | significantly stimulated the rate of PET |  | 
CCCOC(=O)Nc1ccc(C(=O)OCC(O)CNCCOc2ccc(F)cc2)cc1.Cl (stereo not shown) [Compound 23c, 3-[2-(4-Fluorophenoxy)ethylamino]-2-hydroxypropyl 4-(Propoxycarbonylamino)benzoate Hydrochloride] | 0.4228 | 8.16 | 66 µM | 265 µM |  |  | 
CCOC(=O)Nc1ccc(C(=O)OCC(O)CNCCOc2ccc(OC)cc2)cc1.Cl (stereo not shown) [Compound 20b, 2-Hydroxy-3-[2-(4-methoxyphenoxy)ethylamino]-propyl 4-(Ethoxycarbonylamino)benzoate Hydrochloride] | 0.3999 | 8.23 | 533 µM | 533 µM |  |  | 
COC(=O)Nc1ccc(C(=O)OCC(O)CNCCOc2ccc(OC)cc2)cc1.Cl (stereo not shown) [Compound 20a, 2-Hydroxy-3-[2-(4-methoxyphenoxy)ethylamino]-propyl 4-(Methoxycarbonylamino)benzoate Hydrochloride] | 0.3881 | 8.25 | 550 µM | 550 µM |  |  | 
NC(=O)c1cnccn1 [PZA, pyrazinamide, reference compound] |  |  | > 2030 µM | > 812 µM |  | inactive | inactive
COC(=O)Nc1ccc(C(=O)OCC(O)CNCCOc2ccccc2OC)cc1.Cl (stereo not shown) [Compound 19a, 2-Hydroxy-3-[2-(2-methoxyphenoxy)ethylamino]-propyl 4-(Methoxycarbonylamino)benzoate Hydrochloride] | 0.3870 | 8.82 | 275 µM | 550 µM |  |  | 
